Patent US20070293580A1, “Methods for Buccal, Lingual or Sublingual Dosing Regimens of Epinephrine for the Treatment of Allergic Emergencies” (priority 2006, published 2007)

Legend:
symptoms of anaphylaxis [1] = settings: 40 mg
Method: (§1) A patient experiencing an allergic emergency initiates treatment at the onset of shortness of breath by self administering 40 mg of epinephrine free base in a buccal dosage form.
as §1

symptoms of anaphylaxis [2] = settings: 30 mg, then 45 mg at approximately 5 minute intervals without amelioration, within about five minutes after the third dose
Method: A patient experiencing an allergic emergency initiates treatment at the onset of shortness of breath by self administering 30 mg of epinephrine free base in a lingual dosage form. After approximately 5 minutes pass without amelioration of the symptoms of anaphylaxis, the patient self administers a second lingual dosage form comprising 30 mg of epinephrine free base. After another approximately 5 minutes pass without amelioration of the symptoms of anaphylaxis, the patient self administers a third lingual dosage form comprising 45 mg of epinephrine free base.

CNC[C@H](O)c1ccc(O)c(O)c1 [epinephrine free base, epinephrine]
symptoms of anaphylaxis are relieved: patient's symptoms of anaphylaxis after the third buccal dose (symptoms of anaphylaxis [1]; then 60 mg at approximately 5 minute intervals without amelioration, within about five minutes after the third dose) | patient's symptoms of anaphylaxis after the second buccal dose (symptoms of anaphylaxis [1]; then second 40 mg after approximately 5 minutes without amelioration, within about five minutes after the second dose) | patient's symptoms of anaphylaxis after the third lingual dose (symptoms of anaphylaxis [2])
